Laboratory results from US20170190705A1, “Compositions and Methods for Inhibiting BMP” (THE BRIGHAM AND WOMAN'S HOSPITAL, INC., priority 2014, published 2017).

Experiments:
Type in all cases: biochemical
PRKD1 = biological target: T1, PRKD1 (Homo sapiens, UniProt Q15139); experiment: Kinome profiling PRKD1; conditions: read-out: Inhibitory activity PRKD1; for inhibition at 0.1 µM: 100 nM
T1 sequence (Q15139 1-912): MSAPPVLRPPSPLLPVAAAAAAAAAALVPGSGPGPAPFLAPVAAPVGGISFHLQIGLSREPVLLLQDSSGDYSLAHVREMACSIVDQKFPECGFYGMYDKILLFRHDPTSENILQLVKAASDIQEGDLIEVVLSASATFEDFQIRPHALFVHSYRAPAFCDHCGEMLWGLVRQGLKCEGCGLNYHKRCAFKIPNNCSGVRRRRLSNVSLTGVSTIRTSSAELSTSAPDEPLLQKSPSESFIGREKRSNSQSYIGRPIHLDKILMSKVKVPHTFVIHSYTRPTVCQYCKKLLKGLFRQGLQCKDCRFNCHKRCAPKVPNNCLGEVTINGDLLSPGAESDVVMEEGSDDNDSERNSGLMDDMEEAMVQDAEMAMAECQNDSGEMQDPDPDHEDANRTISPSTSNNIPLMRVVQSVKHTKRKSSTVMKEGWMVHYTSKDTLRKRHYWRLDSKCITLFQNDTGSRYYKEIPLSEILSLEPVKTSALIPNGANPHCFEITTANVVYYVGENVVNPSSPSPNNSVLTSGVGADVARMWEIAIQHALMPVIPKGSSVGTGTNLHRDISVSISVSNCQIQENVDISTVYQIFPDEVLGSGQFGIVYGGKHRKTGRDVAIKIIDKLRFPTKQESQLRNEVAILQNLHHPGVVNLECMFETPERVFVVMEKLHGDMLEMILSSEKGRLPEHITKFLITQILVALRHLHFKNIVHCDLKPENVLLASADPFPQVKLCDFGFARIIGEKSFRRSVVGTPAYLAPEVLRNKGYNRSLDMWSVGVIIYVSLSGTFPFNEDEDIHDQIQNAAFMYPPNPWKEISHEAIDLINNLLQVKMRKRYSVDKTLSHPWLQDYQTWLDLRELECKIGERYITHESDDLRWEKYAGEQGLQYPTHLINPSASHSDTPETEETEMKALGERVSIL
Method: (§1) . The kinome-wide selectivity was determined following the methods previously reported by Mohedas et al., ACS Chem Biol 2013, 8, 1291-1302 and Sanvitale et al., PLoS One 2013, 8, e62721.

CK1-γ1 = CK1-γ1 (Homo sapiens, UniProt Q9HCP0); experiment: Kinome profiling CK1-γ1; conditions: read-out: Inhibitory activity CK1-γ1; for inhibition at 0.1 µM: 100 nM
Method: as §1

DCAMKL2 = biological target: T2, DCAMKL2 (Homo sapiens, UniProt Q8N568); experiment: Kinome profiling DCAMKL2; conditions: read-out: Inhibitory activity DCAMKL2; for inhibition at 0.1 µM: 100 nM
T2 sequence (Q8N568 1-766): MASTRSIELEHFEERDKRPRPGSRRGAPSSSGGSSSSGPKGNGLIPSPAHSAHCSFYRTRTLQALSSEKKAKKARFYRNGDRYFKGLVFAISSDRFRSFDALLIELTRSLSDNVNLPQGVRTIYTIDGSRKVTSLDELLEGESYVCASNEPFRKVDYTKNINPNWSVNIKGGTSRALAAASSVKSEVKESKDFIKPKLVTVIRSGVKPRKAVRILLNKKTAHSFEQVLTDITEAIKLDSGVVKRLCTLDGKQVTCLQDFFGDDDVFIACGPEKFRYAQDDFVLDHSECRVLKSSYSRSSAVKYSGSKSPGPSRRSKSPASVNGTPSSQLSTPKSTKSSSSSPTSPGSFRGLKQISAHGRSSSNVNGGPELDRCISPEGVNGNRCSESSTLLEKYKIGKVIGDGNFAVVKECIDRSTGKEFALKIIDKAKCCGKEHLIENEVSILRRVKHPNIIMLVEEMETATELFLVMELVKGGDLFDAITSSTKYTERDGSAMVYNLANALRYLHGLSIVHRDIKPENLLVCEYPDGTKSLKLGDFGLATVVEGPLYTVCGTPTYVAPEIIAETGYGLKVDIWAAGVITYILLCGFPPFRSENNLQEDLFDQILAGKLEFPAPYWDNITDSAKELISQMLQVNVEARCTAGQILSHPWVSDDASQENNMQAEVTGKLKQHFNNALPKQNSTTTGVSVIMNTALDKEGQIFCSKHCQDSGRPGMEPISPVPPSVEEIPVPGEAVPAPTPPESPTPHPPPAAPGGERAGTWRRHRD
Method: as §1

IRAK4 = biological target: T3, IRAK4 (Homo sapiens, UniProt Q9NWZ3); experiment: Kinome profiling IRAK4; conditions: read-out: Inhibitory activity IRAK4; for inhibition at 0.1 µM: 100 nM
T3 sequence (Q9NWZ3 1-460): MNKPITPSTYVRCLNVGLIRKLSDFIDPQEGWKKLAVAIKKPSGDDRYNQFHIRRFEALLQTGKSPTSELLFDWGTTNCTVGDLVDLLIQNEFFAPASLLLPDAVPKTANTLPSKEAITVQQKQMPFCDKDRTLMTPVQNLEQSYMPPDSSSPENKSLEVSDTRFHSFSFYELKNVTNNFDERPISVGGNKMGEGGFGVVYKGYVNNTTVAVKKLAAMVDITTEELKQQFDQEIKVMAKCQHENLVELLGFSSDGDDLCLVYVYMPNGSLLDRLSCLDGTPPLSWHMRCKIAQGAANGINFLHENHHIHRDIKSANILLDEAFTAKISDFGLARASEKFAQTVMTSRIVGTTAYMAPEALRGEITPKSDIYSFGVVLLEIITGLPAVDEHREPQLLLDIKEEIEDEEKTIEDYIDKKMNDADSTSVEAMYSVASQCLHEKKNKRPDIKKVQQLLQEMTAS
Method: as §1

PRAK = biological target: T4, PRAK (Homo sapiens, UniProt Q8IW41); experiment: Kinome profiling PRAK; conditions: read-out: Inhibitory activity PRAK; for inhibition at 0.1 µM: 100 nM
T4 sequence (Q8IW41 1-473): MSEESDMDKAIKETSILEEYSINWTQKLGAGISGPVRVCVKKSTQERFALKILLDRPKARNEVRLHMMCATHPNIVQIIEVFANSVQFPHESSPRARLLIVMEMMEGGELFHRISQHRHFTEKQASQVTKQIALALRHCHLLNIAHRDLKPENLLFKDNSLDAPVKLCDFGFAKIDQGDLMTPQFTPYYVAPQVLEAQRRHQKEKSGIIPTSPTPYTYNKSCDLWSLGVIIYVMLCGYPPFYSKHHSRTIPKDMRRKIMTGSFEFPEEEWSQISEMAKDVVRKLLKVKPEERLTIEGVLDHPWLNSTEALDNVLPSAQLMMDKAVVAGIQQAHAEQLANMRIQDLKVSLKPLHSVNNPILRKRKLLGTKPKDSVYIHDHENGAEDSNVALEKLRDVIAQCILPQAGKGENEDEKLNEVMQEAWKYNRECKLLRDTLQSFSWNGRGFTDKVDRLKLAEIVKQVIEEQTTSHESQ
Method: as §1

CK1-γ1, sequence (Q9HCP0 whole entry): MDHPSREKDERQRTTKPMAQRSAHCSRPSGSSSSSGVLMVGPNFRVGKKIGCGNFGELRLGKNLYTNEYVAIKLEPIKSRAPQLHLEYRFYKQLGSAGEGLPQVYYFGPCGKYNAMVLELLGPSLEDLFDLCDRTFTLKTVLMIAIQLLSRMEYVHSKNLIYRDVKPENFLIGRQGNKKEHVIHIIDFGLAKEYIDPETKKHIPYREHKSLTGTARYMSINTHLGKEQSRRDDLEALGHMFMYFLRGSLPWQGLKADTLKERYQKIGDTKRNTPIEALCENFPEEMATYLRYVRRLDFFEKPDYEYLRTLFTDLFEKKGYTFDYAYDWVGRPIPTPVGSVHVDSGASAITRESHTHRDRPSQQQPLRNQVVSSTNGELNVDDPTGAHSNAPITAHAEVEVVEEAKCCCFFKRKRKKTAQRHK

SMILES | inhibition at 0.1 µM (PRKD1) [%] | inhibition at 1 µM (PRKD1) [%] | inhibition at 0.1 µM (CK1-γ1) [%] | inhibition at 1 µM (CK1-γ1) [%] | inhibition at 0.1 µM (DCAMKL2) [%] | inhibition at 1 µM (DCAMKL2) [%] | inhibition at 0.1 µM (IRAK4) [%] | inhibition at 1 µM (IRAK4) [%] | inhibition at 0.1 µM (PRAK) [%] | inhibition at 1 µM (PRAK) [%]
COc1cc(-c2cc(-c3ccc(N4CCNCC4)cc3)cnc2N)cc(OC)c1OC [Compound 15, 5-(4-(piperazin-1-yl)phenyl)-3-(3,4,5-trimethoxyphenyl)pyridin-2-amine] | 11 | 50 | 4 | 17 | -1 | 3 | 1 | 2 | 1 | 1
COc1cc(-c2cc(-c3ccc(N4CCNCC4)cc3)cnc2C)cc(OC)c1OC [Compound 10, 1-(4-(6-methyl-5-(3,4,5-trimethoxyphenyl)pyridin-3-yl)phenyl)piperazine] | 4 | 23 | 1 | 6 | 1 | 0 | 0 | 1 | 0 | 3
